Results taken from US12186303B2, “Feed additive for cattle comprising n-acetyl-l-tryptophan as active ingredient” (CJ CHEILJEDANG CORPORATION, priority 2018, dated 2025).
Entries after “also recorded” stand apart in the source; their conditions may differ.

How the values were obtained:
Korean native steers = experiment: Hematological analysis (VetScan HM2) under cold stress conditions; format: in vivo, Korean native cattle; set-up: MON / GRA / RBC / HGB / HCT / MCH / WBC / LYM: unit not given here; details: for GRA / HCT / HGB / LYM / MCH / MON / PLT / RBC / WBC: 0.1% NALT
Text: After grouping the animals by statistical analysis of initial body weights, the animals were bred in 1.0×1.5 m^2 individual pens during the experiment period. The feed was offered based on an amount of dry matter of daily total mixed ration (TMR) per head. After 7 days of an adaptation period for N-acetyl-L-tryptophan (NALT), a mixture of 0.1% N-acetyl-L-tryptophan (NALT) and the total mixed ration was fed to individual animals every morning at 8 a.m. for 6 weeks, and water was available ad libitum. Total amounts of L-tryptophan ingested by the control and NALT-treated group by feeding NALT were 7.37 g/day/head and 16.26 g/day/head, respectively. The experiment was performed such that the NALT-treated group ingested 8.89 g/day/head more L-tryptophan than that of the control.
Meanwhile, results of growth performance analysis (body weight and average feed intake) and genetic analysis of loin tissue were obtained by statistically comparing and analyzing significant differences between the control and the NALT-treated group, and results of hematological analysis were obtained via statistical comparison and analysis depending on NALT treatment, experiment period (days), and interaction (treatment×days). These numerical values were expressed as average values, and a significance test was performed at the 5% level using Student's t-test by using the JMP 5.0 software package (SAS Institute Inc., Cary, NC, USA).
Blood was collected from a jugular vein of each sentinel animal before offering the feed at the starting day of the experiment (week 0), the mid-point of the experiment (week 4), and the final day of the experiment (week 7) and added to a vacutainer (Becton Dickinson, Franklin Lakes, NJ, USA). Hematological analysis was conducted using a VetScan HM2 Hematology System (Abaxis, Union City, CA, USA).

[1] = test system: genes related to muscle metabolism (MYF6, MyoD, and Desmin) and fat metabolism (PPARr, CEBPa, and FABP4) of the loin tissue; experiment: Real-time PCR of gene expression related to loin tissue development under cold stress conditions; format: in vivo, Korean native cattle
Text: After grouping the animals by statistical analysis of initial body weights, the animals were bred in 1.0×1.5 m^2 individual pens during the experiment period. The feed was offered based on an amount of dry matter of daily total mixed ration (TMR) per head. After 7 days of an adaptation period for N-acetyl-L-tryptophan (NALT), a mixture of 0.1% N-acetyl-L-tryptophan (NALT) and the total mixed ration was fed to individual animals every morning at 8 a.m. for 6 weeks, and water was available ad libitum. Total amounts of L-tryptophan ingested by the control and NALT-treated group by feeding NALT were 7.37 g/day/head and 16.26 g/day/head, respectively. The experiment was performed such that the NALT-treated group ingested 8.89 g/day/head more L-tryptophan than that of the control. Meanwhile, results of growth performance analysis (body weight and average feed intake) and genetic analysis of loin tissue were obtained by statistically comparing and analyzing significant differences between the control and the NALT-treated group, and results of hematological analysis were obtained via statistical comparison and analysis depending on NALT treatment, experiment period (days), and interaction (treatment×days). These numerical values were expressed as average values, and a significance test was performed at the 5% level using Student's t-test by using the JMP 5.0 software package (SAS Institute Inc., Cary, NC, USA). Samples of loin tissue of the sentinel animals were obtained at the final day of the experiment (day 48) using a biopsy gun for large animals (TNT Research Co., Ltd., Gyeonggi-do, Republic of Korea), added to a 2 mL tube, and incubated in liquid nitrogen gas. After extracting RNA from each tissue sample, real-time PCR was conducted to analyze expression levels of genes related to muscle metabolism (MYF6, MyoD, and Desmin) and fat metabolism (PPARr, CEBPa, and FABP4) of the loin tissue of each animal.

[2] = 0.1% NALT, day 48, control = 1.000

SMILES: CC(=O)N[C@@H](Cc1c[nH]c2ccccc12)C(=O)O [NALT, N-acetyl-L-tryptophan]
- All hematological indicators except for monocytes, compared with the control (Korean native steers): No statistically significant difference
- Hematological indicator values relative to normal ranges (Korean native steers): within normal ranges
- GRA (Korean native steers; 0 wks): 3.01
- HCT (Korean native steers; 0 wks): 35.00
- HGB (Korean native steers; 0 wks): 13.60
- LYM (Korean native steers; 0 wks): 5.55
- MCH (Korean native steers; 0 wks): 12.83
- MON (Korean native steers; 0 wks): 0.10
- PLT (Korean native steers; 0 wks): 378.0
- RBC (Korean native steers; 0 wks): 10.70
- WBC (Korean native steers; 0 wks): 8.66
- GRA (Korean native steers; 4 wks): 2.09
- HCT (Korean native steers; 4 wks): 34.64
- HGB (Korean native steers; 4 wks): 14.20
- LYM (Korean native steers; 4 wks): 6.55
- MCH (Korean native steers; 4 wks): 13.80
- MON (Korean native steers; 4 wks): 0.06
- PLT (Korean native steers; 4 wks): 476.8
- RBC (Korean native steers; 4 wks): 10.34
- WBC (Korean native steers; 4 wks): 8.70
- GRA (Korean native steers; 7 wks): 3.29
- HCT (Korean native steers; 7 wks): 33.88
- HGB (Korean native steers; 7 wks): 13.68
- LYM (Korean native steers; 7 wks): 5.98
- MCH (Korean native steers; 7 wks): 13.70
- MON (Korean native steers; 7 wks): 0.08
- PLT (Korean native steers; 7 wks): 379.5
- RBC (Korean native steers; 7 wks): 10.08
- WBC (Korean native steers; 7 wks): 9.34
- Expression of genes (MYF6, MyoD, and Desmin) related to muscle metabolism of loin tissue compared with the control [1]: did not show a statistically significant difference; also recorded: No statistically significant difference
- Expression of genes (PPARr, CEBPa, and FABP4) related to fat metabolism of loin tissue compared with the control [1]: lower
- CEBPa expression level in loin tissue [1, 2]: 0.293
- Desmin expression level in loin tissue [1, 2]: 0.871
- FABP4 expression level in loin tissue [1, 2]: 0.233
- MYF6 expression level in loin tissue [1, 2]: 0.834
- MyoD expression level in loin tissue [1, 2]: 0.857
- PPARr expression level in loin tissue [1, 2]: 0.274
